Experiment: In vivo sublimation (disappearance) of pellets from subcutaneous implant sites
Design: species or system Sprague-Dawley male rats
Conditions: subcutaneous implant in neck scruff of rats, explanted pellet mass (FIG. 11)
Experimental: The in-vivo disappearance rates of hexamethylethane and adamantane pellets from subcutaneous implant sites in rats were assessed over a 16-week period. Forty six Sprague-Dawley male rats of similar age and weight were assigned into five treatment groups: hexamethylethane pellet implantation (Group H), adamantane pellet implantation (Group A), PLGA (Boehringer Ingelheim Resomer RG 504H) pellet implantation (Group P), a sham group for which surgery was performed without pellet implantation, and a control (no surgery) group. Pellets were individually weighed, and implanted into the neck scruff of rats. Explantation and reweighing of adamantane pellets was performed at 4 and 8 days, and 2, 4, 8, and 10 weeks; hexamethylethane pellets were explanted and weighed at 4 and 24 hours, and 4, 8, and 14 days.

Row | in-vivo sublimation / disappearance period of pellets | SMILES
1 | over a period of at least two months | C1C2CC3CC1CC(C2)C3 [adamantane]
2 | over a period as short as one week | CC(C)(C)C(C)(C)C [hexamethylethane, 2,2,3,3-Tetramethylbutane]
